This passage reports IC50 results from ChEMBL document CHEMBL1140553, “Efficient synthesis and in vitro cytostatic activity of 4-substituted triazolyl-nucleosides” (Bioorg Med Chem Lett, 2007).

Format in all cases: functional, cell-based
In one assay the test system is CCRF-CEM. Put plainly: Cytostatic activity against human CEM cells.
In a further assay the test system is MOLT-4. Nature of the assay: Cytostatic activity against human Molt4/C8 cells.
For the next assay, the system named is L1210. Nature of the assay: Cytostatic activity against mouse L1210 cells.

One may read the IC50 as the concentration that gives 50% inhibition. A higher IC50 goes with weaker potency. On to `CCCCCCc1cn([C@@H]2O[C@H](CO)[C@@H](O)[C@H]2O)nn1`, for which the IC50 in the assay with CCRF-CEM, in the assay on MOLT-4 and in the assay on L1210 was greater than 200 µM throughout.
As for `OC[C@H]1O[C@@H](n2cc(-c3ccccn3)nn2)[C@H](O)[C@@H]1O`, the values for the IC50 with CCRF-CEM, in the assay with MOLT-4 and in the assay with L1210 were 245 µM, 170 µM and 236 µM, respectively.
For `COc1ccc(-c2cn([C@@H]3O[C@H](CO)[C@@H](O)[C@H]3O)nn2)cc1`, the IC50 with CCRF-CEM came out at 73 µM; in the assay with MOLT-4 it was 36 µM; in the assay on L1210 it was 152 µM.
As to `OC[C@H]1O[C@@H](n2cc(-c3ccsc3)nn2)[C@H](O)[C@@H]1O`, the IC50 amounted to 139 µM in the assay with CCRF-CEM, 126 µM in the assay with MOLT-4 and 182 µM in the assay with L1210.
As to `CCCCCCCCc1cn([C@@H]2O[C@H](CO)[C@@H](O)[C@H]2O)nn1`, the half-inhibitory concentration (IC50) was determined as 44 µM in the assay on CCRF-CEM, 50 µM in the assay with MOLT-4 and 56 µM in the assay on L1210.
For `OC[C@H]1O[C@@H](n2cc(-c3ccc(F)cc3)nn2)[C@H](O)[C@@H]1O` the same measures were 217 µM, 171 µM and 209 µM.
As for `CC(O)c1cn([C@@H]2O[C@H](CO)[C@@H](O)[C@H]2O)nn1` (some centres undefined), the IC50 with CCRF-CEM, in the assay with MOLT-4 and in the assay on L1210 was greater than 200 µM throughout.
Consider `OCc1cn([C@@H]2O[C@H](CO)[C@@H](O)[C@H]2O)nn1`, for which the IC50 in the assay with CCRF-CEM, with MOLT-4 and in the assay on L1210 was greater than 200 µM in each case.
